Laboratory results as given in patent US8772500B2, “TRPV3 modulators” (AbbVie Inc., priority 2011, dated 2014).

Experiments:
[1] = In vitro human microsomal stability assay; format: in vitro ADME; conditions: for HUMAN […] (% REMAINING AFTER 30 MINUTES): 0.5 μM substrate, 0.25 mg/mL microsomal protein, pH 7.4, 37° C., NADPH; for HUMAN MICROSOMAL STABILITY (% REMAINING AFTER 30 MINUTES): 0.5 h, 0.5 μM, pH 7.4
In short: (§1)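 Rat (Sprague-Dawley) and human liver microsomes were incubated with test compound and NADPH at 37 °C. Time-zero samples also received NADPH.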

[2] = In vitro rat microsomal stability assay; format: in vitro ADME, rat (Sprague-Dawley); conditions: for RAT […] (% REMAINING AFTER 30 MINUTES): 0.5 μM substrate, 0.25 mg/mL microsomal protein, pH 7.4, 37° C., NADPH; for RAT MICROSOMAL STABILITY (% REMAINING AFTER 30 MINUTES): Sprague-Dawley, 0.5 h, 0.5 μM, pH 7.4
In short: as §1

CD1 mice = assay: In vivo chronic constriction injury (CCI) model of neuropathic pain, mechanical allodynia (von Frey); conditions: 100 mg/kg oral dose, 1 hour after dosing, average of eight mice; vehicle 0%, control 100%
Experimental: Test compounds were evaluated for analgesic effect in an in vivo chronic constriction injury (CCI) model of neuropathic pain. CD1 mice (Charles River) were used for these studies. Prior to testing (2-4 weeks) animals underwent a surgical procedure consisting of approximately 3 loose ligatures around the sciatic nerve. Following sterilization procedures, under isofluorane anesthetic, a 1.5 cm incision was made dorsal to the pelvis. The biceps femoris and gluteous superficialis (right side) were separated and the sciatic nerve exposed, isolated, and 2-4 loose ligatures (5-0 chromic gut) with less than 1 mm spacing were placed around it. Following hemostasis, the wound was sutured (layer of muscle closed with 5-0 nylon suture, and the wound closed with surgical staples) and coated with iodine. The mice were allowed to recover on a warming plate and were returned to their home cages (soft bedding) when able to walk on their own.
Two to four weeks after the surgery, test compound was administered orally (PO) in these mice, and mechanical allodynia was evaluated 1 hour after oral dosing where the threshold to response was assessed using calibrated von Frey monofilaments. The von Frey monofilaments were applied to the hind paw at increasing forces until the animal responded by lifting its paw. […]
Each test compound was evaluated in eight different mice. […]

human TRPV3 = molecular target: T1, human TRPV3 (Homo sapiens, UniProt Q8NET8); assay: In vitro antagonism of recombinant human TRPV3 activation (FLIPR Tetra calcium assay, 2-APB as agonist); format: cell-based; conditions: HEK293 cells stably expressing human TRPV3; 2-APB 80 μM; range class; read-out: IC50 (reported range)
T1 construct: expressed in transfected cells
T1 sequence (Q8NET8 1-790): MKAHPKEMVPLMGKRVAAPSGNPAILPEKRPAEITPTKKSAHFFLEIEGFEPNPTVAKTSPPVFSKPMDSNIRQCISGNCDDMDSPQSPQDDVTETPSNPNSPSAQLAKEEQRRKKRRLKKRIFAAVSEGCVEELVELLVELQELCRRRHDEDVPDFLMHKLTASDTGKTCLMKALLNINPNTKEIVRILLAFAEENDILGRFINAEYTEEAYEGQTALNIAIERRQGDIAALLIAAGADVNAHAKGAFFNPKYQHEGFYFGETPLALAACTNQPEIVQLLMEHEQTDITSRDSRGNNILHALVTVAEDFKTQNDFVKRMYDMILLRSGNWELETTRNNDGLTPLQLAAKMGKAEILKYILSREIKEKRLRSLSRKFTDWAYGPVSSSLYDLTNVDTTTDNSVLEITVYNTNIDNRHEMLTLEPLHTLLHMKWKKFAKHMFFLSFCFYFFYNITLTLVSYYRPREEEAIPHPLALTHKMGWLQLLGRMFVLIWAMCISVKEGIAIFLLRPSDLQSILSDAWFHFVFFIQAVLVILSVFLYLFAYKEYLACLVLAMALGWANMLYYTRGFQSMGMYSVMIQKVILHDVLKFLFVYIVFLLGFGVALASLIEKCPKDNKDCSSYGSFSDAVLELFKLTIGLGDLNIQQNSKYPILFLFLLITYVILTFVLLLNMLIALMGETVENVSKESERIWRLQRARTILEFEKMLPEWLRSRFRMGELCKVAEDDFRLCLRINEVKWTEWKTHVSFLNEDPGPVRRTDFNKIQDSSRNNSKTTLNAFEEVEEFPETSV
In short: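 HEK293 cells stably expressing human TRPV3, loaded with Calcium-4 dye for 90-120 min; compound added 3 min before 2-APB at 80 μM (its EC80). Fluorescence (max minus min) over 10 min expressed as % of maximal 2-APB response without antagonist; IC50 mostly averaged from n≧2 runs.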

SMILES | HUMAN […] (% REMAINING AFTER 30 MINUTES) [1] [%] | RAT […] (% REMAINING AFTER 30 MINUTES) [2] [%] | % EFFECT (CD1 mice) [%] | IC50 (human TRPV3) [nM] | HUMAN MICROSOMAL STABILITY (% REMAINING AFTER 30 MINUTES) [1] [%] | RAT MICROSOMAL STABILITY (% REMAINING AFTER 30 MINUTES) [2] [%]
C[C@]1(O)C[C@](c2cc(C(F)(F)F)ccn2)([C@H](O)c2ccccn2)C1 (relative stereo) [Example 285, cis-3-[(S)-hydroxy(pyridin-2-yl)methyl]-1-methyl-3-[4-(trifluoromethyl)-pyridin-2-yl]cyclobutanol] | 83 | 69 | 59 |  |  | 
CN[C@@H]1CCC[C@H]1[C@@H](O)C1(c2ccc(Cl)c(Cl)c2)CCC1 [Example 228, (R)-[1-(3,4-dichlorophenyl)cyclobutyl][(1R,2R)-2-(methylamino)-cyclopentyl]methanol] |  |  |  | 1100 to 5000 | 70 | 25
OC1CC(c2cccc(OC(F)(F)F)c2)(C(O)c2ccccn2)C1 [Example 272, cis-3-[(S)-hydroxy(pyridin-2-yl)methyl]-3-[3-(trifluoromethoxy)phenyl]-cyclobutanol] |  |  |  | 50 to 500 | 54 | 48
OC(c1ccccn1)C1(c2ccc(C(F)(F)F)cn2)CCC1 (stereo not drawn) [Example 115, pyridin-2-yl{1-[5-(trifluoromethyl)pyridin-2-yl]cyclobutyl}methanol] |  |  |  | 5100 to 20000 | >85 | 81
N[C@H]1CCC[C@H]1[C@H](O)C1(c2ccc(Cl)c(Cl)c2)CCC1 [Example 217, (S)-[(1R,2S)-2-aminocyclopentyl][1-(3,4-dichlorophenyl)cyclobutyl]-methanol] |  |  |  | 1100 to 5000 | 73 | 68
OC(c1ccccn1)C1(c2nc3ccc(Cl)cc3s2)CCC1 (stereo not drawn) [Example 292, [1-(6-chloro-1,3-benzothiazol-2-yl)cyclobutyl](pyridin-2-yl)methanol] |  |  |  | 501 to 1000 | 19 | 5.4
N[C@@H]1CCC[C@H]1[C@@H](O)C1(c2cccc(C(F)(F)F)c2)CCC1 [Example 227, (R)-[(1R,2R)-2-aminocyclopentyl]{1-[3-(trifluoromethyl)phenyl]-cyclobutyl}methanol] |  |  |  | 50 to 500 | >85 | 42
Cc1ccc(CC2(C(O)c3ccccn3)CCC2)cc1 (stereo not drawn) [Example 52, [1-(4-methylbenzyl)cyclobutyl](pyridin-2-yl)methanol] |  |  |  | 1100 to 5000 | 1.7 | 0.05
CC(c1ccc(F)cc1)C1(C(O)c2ccccn2)CCC1 (stereo not drawn) [Example 46, {1-[1-(4-fluorophenyl)ethyl]cyclobutyl}(pyridin-2-yl)methanol] |  |  |  | 5100 to 20000 | 11 | 0.23
OC(c1ccccn1)C1(c2ccc(F)c(C(F)(F)F)c2)CCC1 (stereo not drawn) [Example 15, {1-[4-fluoro-3-(trifluoromethyl)phenyl]cyclobutyl}(pyridin-2-yl)methanol] |  |  |  | 50 to 500 | 5.6 | 1.2
CC(=O)O[C@H](c1ccccn1)C1(c2ccc(OC(F)(F)F)cc2)CCC1 [Example 288, (S)-pyridin-2-yl{1-[4-(trifluoromethoxy)phenyl]cyclobutyl}methyl acetate] |  |  |  | 5100 to 20000 | <0.01 | <0.01
COC1CC(c2ccc(Cl)c(Cl)c2)([C@H](O)c2ccccn2)C1 (stereo partly drawn) [Example 151, (S)-[1-(3,4-dichlorophenyl)-3-methoxycyclobutyl](pyridin-2-yl)methanol] |  |  |  | 1100 to 5000 | 32 | <0.01
OC(c1ccccn1)C1(c2nc3ccc(F)cc3s2)CCC1 (stereo not drawn) [Example 300, [1-(6-fluoro-1,3-benzothiazol-2-yl)cyclobutyl](pyridin-2-yl)methanol] |  |  |  | 1100 to 5000 | 35 | 0.020
OC(c1ccccn1)C1(c2cc(C(F)(F)F)ccn2)CCC1 (stereo not drawn) [Example 116, pyridin-2-yl{1-[4-(trifluoromethyl)pyridin-2-yl]cyclobutyl}methanol] |  |  |  | 501 to 1000 | 37 | 25
O[C@H](c1ccccn1)C1(c2ccc(C(F)(F)F)cc2)CC(F)(F)C1 [Example 154, (S)-{3,3-difluoro-1-[4-(trifluoromethyl)phenyl]cyclobutyl}(pyridin-2-yl)-methanol] |  |  |  | 50 to 500 | 56 | 78
O[C@H](c1ccccn1)[C@]1(c2cccc(C(F)(F)F)c2)C[C@H](O)C1 (relative stereo) [Example 259, cis-3-[(S)-hydroxy(pyridin-2-yl)methyl]-3-[3-(trifluoromethyl)phenyl]-cyclobutanol] | 76 | 73 |  | 50 to 500 |  | 
